{"source": "patent US20020031816A1", "about": "“METHOD OF INHIBITION OF HUMAN GLYCOGEN PHOSPHORYLASE” (priority 1998, published 2002)", "data": [{"values": [{"compound": "CCN1C(=O)C(C(=O)Nc2cccc(C(=O)NC3CCCCC3)c2)c2cc(C(C)=O)ccc21", "note": "(stereo not drawn) [Preparation 2, 5-Acetyl-1-ethyl-2-oxo-2,3-dihydro-1H-indole-3-carboxylic acid (3-cyclohexylcarbamoyl-phenyl)-amide]", "melting point": "180 °C (dec.)"}, {"compound": "CCN1C(=O)C(C(=O)Nc2cccc(C(=O)Nc3ccc(Cl)cc3)c2)c2cc(C(C)=O)ccc21", "note": "(stereo not drawn) [Preparation 3, 5-Acetyl-1-ethyl-2-oxo-2,3-dihydro-1H-indole-3-carboxylic acid [3-(4-chloro-phenylcarbamoyl)-phenyl]-amide]", "melting point": "119 to 121 °C"}, {"compound": "CCN1C(=O)C(C(=O)Nc2cccc(C(=O)Nc3ccc(Br)cc3)c2)c2cc(C(C)=O)ccc21", "note": "(stereo not drawn) [Preparation 8, 5-Acetyl-1-ethyl-2-oxo-2,3-dihydro-1H-indole-3-carboxylic acid [3-(4-bromo-phenylcarbamoyl)-phenyl]-amide]", "melting point": "117 to 120 °C"}, {"compound": "CCN1C(=O)C(C(=O)Nc2cccc(C(=O)Nc3ccc(I)cc3)c2)c2cc(C(C)=O)ccc21", "note": "(stereo not drawn) [Preparation 9, 5-Acetyl-1-ethyl-2-oxo-2,3-dihydro-1H-indole-3-carboxylic acid [3-(4-iodo-phenylcarbamoyl)-phenyl]-amide]", "melting point": "205 to 210 °C"}, {"compound": "CCN1C(=O)C(C(=O)Nc2cccc(C(=O)Nc3ccccc3)c2)c2cc(C(=O)c3ccccc3)ccc21", "note": "(stereo not drawn) [Preparation 10, 5-Benzoyl-1-ethyl-2-oxo-2,3-dihydro-1H-indole-3-carboxylic acid (3-phenylcarbamoyl-phenyl)-amide]", "melting point": "129 to 135 °C"}, {"compound": "CC(=O)c1ccc2c(c1)C(C(=O)Nc1cccc(C(=O)Nc3ccccc3)c1)C(=O)N2C", "note": "(stereo not drawn) [Preparation 12, 5-Acetyl-1-methyl-2-oxo-2,3-dihydro-1H-indole-3-carboxylic acid (3-phenylcarbamoyl-phenyl)-amide]", "melting point": "178 to 179 °C"}]}]}
